Article PMC10460801 (Advanced Pharmaceutical Bulletin, 2022)
≈ marks a conversion by molar mass, not a printed value. Like-named read-outs stand apart in the source and are kept apart here.

Legend:
[1] = cited from earlier work
[2] = Saturation shake-flask equilibrium solubility (48 h, 37 °C, UV-Vis); assay type: physicochemical; settings: for solubility thermodynamic at 48 h: thermodynamic from solid, read-out: Css mean
Procedure: In this study dissolution test has been performed in the presence of amino acids within various media, including phosphate buffer solution (pH = 7.4), hydrochloric acid buffer (pH = 1.2), citrate buffer (pH = 6 and pH = 4.2), and distilled water (pH = 6.5). Briefly, for each buffer, a suitable amount of components was transferred to a 250 mL volumetric flask and then diluted with distilled water to the volume line. Finally, the pH of the solution was examined and set using a pH meter (Germany, Metrohm SWISS mode).
The saturation shake-flask method has been used for solubility studies. In brief, buffer solutions containing different concentrations of each amino acid were prepared. An excess amount of each drug was weighed in capped vials, then buffers alone and mixed with amino acids were added to the vials and the pH change was set again. After that, capped vials were shaken for about 48 hours on a shaker incubator (Korea, HYSC) at speed of 150 RPM and 37^ᵒC to reach equilibrium and result a saturated solution. After 48 hours the upper phase was separated and centrifuged. Filtered samples were diluted with buffer before reading their UV-Vis absorbance. Then the amount of solubility was calculated using a calibration curve considering the dilution coefficient. Each of the experiments was repeated three times.

[3] = cited from earlier work; remark: listed apart in the source
[4] = Citrate buffer, pH 6 before incubation, 48 h, 37 °C
[5] = Phosphate buffer, pH 7.4 before incubation, 48 h, 37 °C
[6] = Water, pH 6.5 before incubation, 48 h, 37 °C
[7] = aqueous buffer, Citrate buffer, pH 6 before incubation, 48 h, 37 °C
[8] = aqueous buffer, Phosphate buffer, pH 7.4 before incubation, 48 h, 37 °C
[9] = distilled water, pH 6.5, increasing GlucN
[10] = hydrochloric acid buffer, pH 1.2 before incubation, 48 h, 37 °C
[11] = Citrate buffer, pH 4.2 before incubation, 48 h, 37 °C

Structure (SMILES)	Measured Css Sample 1 [2, 4] [µg/mL]	Measured Css Sample 2 [2, 4] [µg/mL]	Measured Css Sample 3 [2, 4] [µg/mL]	Measured Css Sample 1 [2, 5] [µg/mL]	Measured Css Sample 2 [2, 5] [µg/mL]	Measured Css Sample 3 [2, 5] [µg/mL]	solubility thermodynamic at 48 h [2, 7] [µg/mL]	solubility thermodynamic at 48 h [2, 8] [µg/mL]	change of drug solubility in the presence of GlucN ([2]; citrate buffer, pH 6)	change of drug solubility in the presence of GlucN [2, 9]	also measured
N[C@H]1C(O)O[C@H](CO)[C@@H](O)[C@@H]1O (stereo partly drawn) [GlucN, Glucosamine]											water solubility [1]: 320000 µg/mL (≈ 1790 mM)
CC(C)Cc1ccc(C(C)C(=O)O)cc1 (stereo not drawn) [IBU, Ibuprofen]	5330	5050	5240	10510	10330	10510	5200 (≈ 25.2 mM)	10400 (≈ 50.7 mM)	solubility increased	follows an upward pattern	Measured Css Sample 1 [2, 6]: 3210 µg/mL; Measured Css Sample 2 [2, 6]: 3110 µg/mL; Measured Css Sample 3 [2, 6]: 3060 µg/mL; solubility thermodynamic at 48 h ([2]; distilled water, Water, pH 6.5 before incubation, 48 h, 37 °C): 3120 µg/mL (≈ 15.1 mM); Css mean [2, 10]: 800 µg/mL; Measured Css Sample 1 [2, 10]: 790 µg/mL; Measured Css Sample 2 [2, 10]: 820 µg/mL; Measured Css Sample 3 [2, 10]: 790 µg/mL; solubility thermodynamic at 48 h ([2]; simulated gastric fluid, hydrochloric acid buffer, pH 1.2 before incubation, 48 h, 37 °C): 800 µg/mL (≈ 3.88 mM); unionized fraction in the stomach [3]: 99.9%; intrinsic water solubility ([1]; free acid): ~60 µg/mL
CN1C(C(=O)Nc2ccccn2)=C(O)c2ccccc2S1(=O)=O [PXM, Piroxicam]	140	130	150	1250	1320	1320	140 (≈ 0.423 mM)	1290 (≈ 3.89 mM)	improved the solubility	does not change significantly	Measured Css Sample 1 [2, 11]: 280 µg/mL; Measured Css Sample 2 [2, 11]: 230 µg/mL; Measured Css Sample 3 [2, 11]: 250 µg/mL; solubility thermodynamic at 48 h ([2]; aqueous buffer, Citrate buffer, pH 4.2 before incubation, 48 h, 37 °C): 250 µg/mL (≈ 0.754 mM); change of drug solubility in the presence of GlucN ([2]; citrate buffer, pH 4.2): enhanced; change of drug solubility in the presence of LYS ([2]; citrate buffer, pH 4.2, Figure 3B): did not follow a specific trend; change of drug solubility in the presence of ARG ([2]; phosphate buffer, concentration above molar ratio 1:1 PXM/ARG, Figure 3A): solubility goes down
